Reference: patent US11857519B2, “Compounds and methods for the targeted degradation of enhancer of zeste homolog 2 polypeptide” (Arvinas Operations, Inc., priority 2016, dated 2024)

Molecular target: T1, EZH2 (Homo sapiens, UniProt Q15910)
T1 construct: Protocol of the Cellular Assay of Target Protein Degradation (VCaP Cells, ELISA); endogenous in cells; host or cells: VCaP cells
Test: Cellular assay of target protein degradation (VCaP cells, ELISA)
Assay type: cell-based
Conditions: 4 hours, protein degradation range at indicated concentration (relative to DMSO control)
Procedure, shortened: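 VCaP cells grown ≥3 days in RPMI with 5% CSS, then dosed with compounds in 0.1% DMSO for 4 h. Lysates analysed by sandwich ELISA for EZH2 with TMB readout at 450 nm, 562 nm used for background subtraction.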

T1 sequence (Q15910 whole entry): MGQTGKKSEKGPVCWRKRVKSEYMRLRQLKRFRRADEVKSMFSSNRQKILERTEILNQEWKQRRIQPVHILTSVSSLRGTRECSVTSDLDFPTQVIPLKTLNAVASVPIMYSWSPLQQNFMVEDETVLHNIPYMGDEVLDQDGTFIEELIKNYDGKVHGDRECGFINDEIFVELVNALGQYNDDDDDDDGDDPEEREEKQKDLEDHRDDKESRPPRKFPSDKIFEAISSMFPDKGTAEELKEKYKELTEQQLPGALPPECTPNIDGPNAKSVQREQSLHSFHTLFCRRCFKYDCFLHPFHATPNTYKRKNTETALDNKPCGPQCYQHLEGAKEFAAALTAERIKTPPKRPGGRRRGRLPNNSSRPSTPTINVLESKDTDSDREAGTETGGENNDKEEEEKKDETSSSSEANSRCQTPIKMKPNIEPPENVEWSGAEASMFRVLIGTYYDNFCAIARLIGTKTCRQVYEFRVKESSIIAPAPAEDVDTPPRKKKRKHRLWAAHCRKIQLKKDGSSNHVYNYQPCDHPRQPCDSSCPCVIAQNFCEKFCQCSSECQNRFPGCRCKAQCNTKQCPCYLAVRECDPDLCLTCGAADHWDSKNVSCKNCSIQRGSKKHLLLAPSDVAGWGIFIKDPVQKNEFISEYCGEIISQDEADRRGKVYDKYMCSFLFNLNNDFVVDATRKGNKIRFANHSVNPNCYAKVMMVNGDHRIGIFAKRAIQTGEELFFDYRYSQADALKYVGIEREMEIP
T1 sequence (O75530 whole entry partner): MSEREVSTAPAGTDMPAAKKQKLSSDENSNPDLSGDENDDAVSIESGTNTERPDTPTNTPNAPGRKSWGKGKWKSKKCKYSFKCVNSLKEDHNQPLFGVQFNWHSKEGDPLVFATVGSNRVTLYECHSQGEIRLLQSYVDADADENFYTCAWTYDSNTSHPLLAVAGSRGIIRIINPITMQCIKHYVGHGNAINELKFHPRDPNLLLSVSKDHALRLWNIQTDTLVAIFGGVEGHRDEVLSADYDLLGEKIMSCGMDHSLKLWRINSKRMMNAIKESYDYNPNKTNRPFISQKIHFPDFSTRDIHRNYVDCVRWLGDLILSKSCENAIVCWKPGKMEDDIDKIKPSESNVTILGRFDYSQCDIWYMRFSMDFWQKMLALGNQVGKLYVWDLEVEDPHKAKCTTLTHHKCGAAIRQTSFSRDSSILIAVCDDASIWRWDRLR
T1 sequence (Q15022 whole entry partner): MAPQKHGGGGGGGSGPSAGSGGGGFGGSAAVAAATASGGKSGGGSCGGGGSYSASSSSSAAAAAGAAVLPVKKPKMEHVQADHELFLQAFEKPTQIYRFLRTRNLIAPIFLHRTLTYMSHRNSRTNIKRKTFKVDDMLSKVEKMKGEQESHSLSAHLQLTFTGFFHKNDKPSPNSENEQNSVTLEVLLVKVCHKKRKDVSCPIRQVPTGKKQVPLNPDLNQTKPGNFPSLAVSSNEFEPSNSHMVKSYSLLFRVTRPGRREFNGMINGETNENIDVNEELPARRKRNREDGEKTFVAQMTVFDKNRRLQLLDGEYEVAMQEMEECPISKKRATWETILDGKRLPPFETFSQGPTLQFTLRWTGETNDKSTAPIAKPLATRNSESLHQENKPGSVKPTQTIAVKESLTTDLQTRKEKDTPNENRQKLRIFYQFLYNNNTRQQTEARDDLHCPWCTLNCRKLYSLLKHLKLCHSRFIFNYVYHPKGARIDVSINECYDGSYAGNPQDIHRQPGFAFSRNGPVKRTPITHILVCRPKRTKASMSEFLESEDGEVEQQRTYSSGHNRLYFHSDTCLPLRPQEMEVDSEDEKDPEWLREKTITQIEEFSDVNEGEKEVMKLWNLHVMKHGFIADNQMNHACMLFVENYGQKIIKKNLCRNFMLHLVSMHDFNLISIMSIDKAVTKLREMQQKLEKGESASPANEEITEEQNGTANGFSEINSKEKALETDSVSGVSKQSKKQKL

| Compound | percent target protein degradation class |
| --- | --- |
| CCN(c1cc(-c2ccc(N3CCN(CCCOCCOCC(=O)N[C@H](C(=O)N4C[C@H](O)C[C@H]4C(=O)N[C@@H](C)c4ccc(-c5scnc5C)cc4)C(C)(C)C)CC3)cc2)cc(C(=O)NCc2c(C)cc(C)[nH]c2=O)c1C)C1CCOCC1 [Compound 119, (2S,4R)-1-((S)-2-(2-(2-(3-(4-(3′-(((4,6-dimethyl-2-oxo-1,2-dihydropyridin-3-yl)methyl)carbamoyl)-5′-(ethyl(tetrahydro-2H-pyran-4-yl)amino)-4′-methyl-[1,1′-biphenyl]-4-yl)piperazin-1-yl)propoxy)ethoxy)acetamido)-3,3-dimethylbutanoyl)-4-hydroxy-N-((S)-1-(4-(4-methylthiazol-5-yl)phenyl)ethyl)pyrrolidine-2-carboxamide] | B (B = degradation between 30% and 60%) |
| (2R,3S,4R,5S)-3-(3-chloro-2- fluorophenyl)-4-(4-chloro-2- fluorophenyl)-4-cyano-N-[4- ({1-[4-(3-{[(4,6-dimethyl-2- oxo-1,2-dibydropyridin-3- yl)methyl]carbamoyl}-5- [ethyl(oxan-4-yl)amino]-4- methylphenyl)phenyl]-1,4,7,10- tetraoxadodecan-12- yl}carbamoyl)-2- methoxyphenyl]-5-(2,2- dimethylpropyl)pyrrolidine-2- carboxamide [Compound 24] | B (B = degradation between 30% and 60%) |
| (2R,3S,4R,5S)-3-(3-chloro-2- fluorophenyl)-4-(4-chloro-2- fluorophenyl)-4-cyano-N-[4- ({1-[4-(3-{[(4,6-dimethyl-2- oxo-1,2-dihydropyridin-3- yl)methyl]carbamoyl}-5- [ethyl(oxan-4-yl)amino]-4- methylphenyl)phenyl- 1,4,7,10,13,16- hexaoxaoctadecan-18- yl}carbamoyl)-2- methoxyphenyl]-5-(2,2- dimethylpropyl)pyrrolidine-2- carboxamide [Compound 27] | B (B = degradation between 30% and 60%) |
